Assay results reported in paper PMC9573696, “Experimental Examination of Solubility and Lipophilicity as Pharmaceutically Relevant Points of Novel Bioactive Hybrid Compounds” (Molecules, 2022).
In brackets after ≈: the same amount, converted by molar mass. Marks after values point to notes of the source that are not given here.

Legend:
[1] = Equilibrium (thermodynamic) solubility, shake-flask method; assay type: physicochemical; conditions: for Solubility S × 10^2 / Solubility x × 10^3: 1-Octanol; for Solubility S × 10^2 / Solubility x × 10^3 / Solubility S × 10^4 / Solubility x × 10^5 / Solubility S × 10^5 / Solubility x × 10^6: amorphous state; for Solubility S × 10^4 / Solubility x × 10^5: Buffer pH 2.0; for Solubility S × 10^5 / Solubility x × 10^6: Buffer pH 7.4
Text: The experimental solubility values of hybrids in the selected solvents within the temperature range of 293.15–313.15 K expressed in molarity are summarized in Table 2. The comparative analysis of the reference values of the solubility of compounds I–III at the standard temperature of 298.15 K is given as a histogram in Figure 3.
Shake-flask method as “gold standard” was used for determination thermodynamic solubility synthesized compounds in buffer solutions (pH 2.0 and 7.4) and 1-octanol in the temperature range of 293.15–313.15 K with a step of 5 degrees at atmospheric pressure. Excessive amounts of compound were added to glass vials c 12 mL of selected solvent. The heterogeneous system is closed with a lid and vigorously stirred at the selected temperature in an air thermostat with a stirring device until the solubility equilibrium has been reached. The time required for establishing a constant value of the solution concentration was determined from the solubility kinetic dependences and averaged 2 days. The equilibrated solutions were first survived to aim sedimentation of solid phase during 10 h, then centrifuged at 20,000 rpm for 30 min at specific temperatures, and then quickly filtered using a syringe equipped with a hydrophilic filter Millex-GV 0.22 µm (Ireland). Concentration of saturated solution was measured using spectrophotometer Cary-50 (Varian, USA) with an accuracy of 2–4%. The absorbances of compounds studied were measured at wavelengths 332 and 334 nm in buffer solutions and 1-octanol, respectively. If necessary, an aliquot was diluted with an appropriate solvent. The final pH of the saturated buffers was monitored. The solubility of compounds in each solvent was determined by repeating the procedure three times.
Mole fraction concentration was calculated from solubility value S expressed in mol∙L^−1 using Equation (10):(10) x=M2S/S(M2−M1)+1000ρ, where M1 and M2 are the molar masses of solute and solvent, respectively, and ρ (g∙cm^−3) is the density of the pure solvents. The mole fraction solubilities for buffer solutions were calculated taking into account the buffer compositions. The used values of densities are given in Table S6 in Supplementary Material.

[2] = system: C. parapsilosis ATCC 22019; test: In vitro antifungal activity, microbroth dilution (MIC); assay type: cell-based; conditions: C. parapsilosis ATCC 22019
Summary of the method: (§1)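 MICs were determined by CLSI microbroth dilution, with fluconazole as the reference drug. Plates were incubated at 35 °C for 24 h and growth was scored visually against a sample-free reference culture. Each test was run in triplicate.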

C. glabrata 61L = test: as above; assay type: cell-based; conditions: C. glabrata 61L
Summary of the method: as §1

C. utilis 84 = test: as above; assay type: cell-based; conditions: C. utilis 84
Summary of the method: as §1

[3] = Apparent thermodynamic functions of dissolution (van't Hoff); assay type: physicochemical; conditions: Thm = 302.98 K
Text: The dissolution of the new hybrids was characterized based on apparent thermodynamic parameters obtained from temperature dependences of solubility of the studied compounds in the selected solvents (Figure 6). […] The van’t Hoff enthalpy of dissolution can be expressed as the inclination of a tangent to a solubility curve plotted as lnx vs. (1/T − 1/Thm) by Equation (6): (6) ΔHsolo=−R(∂lnx/∂(1/T−1/Thm))=−R⋅slope where R = 8.314 J⋅K^−1·mol^−1 is the universal gas constant. Thm = 302.98 K denotes the mean harmonic temperature, which was calculated by Equation (7):(7) Thm=n/∑i=1n1/Ti where n represented the number of experimental temperatures. The apparent standard Gibbs energy was evaluated by Equation (8):(8) ΔGsolo=−RThm×intersept
The apparent standard solution entropies were obtained from the well-known relationship:(9) ΔSsolo=ΔHsolo−ΔGsolo/Thm
The calculated apparent thermodynamic solubility functions of dissolution (Gibbs energy, enthalpy, and entropy) at standard temperature 298.15 K for hybrid compounds were collected in Table 4.

[4] = Thermodynamic functions of transfer 1-octanol/buffer pH 7.4; assay type: physicochemical; conditions: 298.15 K
Procedure: The temperature variation of the partition coefficient provides enthalpic and entropic contributions to the free energy of transfer. The thermodynamic transfer functions for hybrids I–III in the 1-octanol/buffer pH 7.4 system were calculated by Equations (12)–(16) and are summarized in Table 6. The standard Gibbs energy values for all the compounds are negative. Therefore, the transfer from the aqueous medium to the organic phase within the studied temperature range is thermodynamically favourable and spontaneous. The standard transfer enthalpies of all the studied compounds are positive, which means the process is endothermic. Energy is consumed during the transfer to overcome the hydrophobic effects in water (destruction of the molecule solvate shell structure), destruction of the solvent–solute interactions in the aqueous medium and creation of a cavity in the organic phase where the solute molecules can enter.
The standard change in Gibbs free energy of transfer (∆trG^o) from the buffer to the organic phase was calculated by Equation (14):∆trG^o = −RTlnP*o/b(14)
The standard change entropy of transfer (∆trS^o) is determined as follows:∆trS^o = (∆trH^o − ∆trG^o)/T(15)

## O=c1c2sc(=S)n(-c3ccc(Cl)cc3)c2ncn1CCCN1CCN(CC(O)(Cn2cncn2)c2ccc(F)cc2F)CC1 (centres unmarked) [III, 6-[3-[4-[2-(2,4-difluorophenyl)-2-hydroxy-3-(1H-1,2,4-triazol-1-yl)propyl]-1-piperazinyl]propyl]-2,3-dihydro-3-(4-chlorophenyl)-2-thioxo-thiazolo[4,5-d]pyrimidin-7(6H)-one]
[1]; 293.15 K
  Solubility S × 10^2: 1.1196 mol∙L^−1 (printed as S × 10^2)
  Solubility x × 10^3: 1.7767 mol. frac. (printed as x × 10^
  Solubility S × 10^4: 6.3622 mol∙L^−1 (printed as S × 10^4)
  Solubility x × 10^5: 1.1474 mol. frac. (printed as x × 10^
  Solubility S × 10^5: 5.8572 mol∙L^−1 (printed as S × 10^5)
  Solubility x × 10^6: 1.0651 mol. frac. (printed as x × 10^
[1]; 298.15 K
  Solubility S × 10^2: 1.2269 mol∙L^−1 (printed as S × 10^2)
  Solubility x × 10^3: 1.9566 mol. frac. (printed as x × 10^
  Solubility S × 10^4: 6.7826 mol∙L^−1 (printed as S × 10^4)
  Solubility x × 10^5: 1.2247 mol. frac. (printed as x × 10^
  Solubility S × 10^5: 6.7347 mol∙L^−1 (printed as S × 10^5)
  Solubility x × 10^6: 1.2262 mol. frac. (printed as x × 10^
[1]; 303.15 K
  Solubility S × 10^2: 1.3464 mol∙L^−1 (printed as S × 10^2)
  Solubility x × 10^3: 2.1577 mol. frac. (printed as x × 10^
  Solubility S × 10^4: 7.1958 mol∙L^−1 (printed as S × 10^4)
  Solubility x × 10^5: 1.3013 mol. frac. (printed as x × 10^
  Solubility S × 10^5: 7.7877 mol∙L^−1 (printed as S × 10^5)
  Solubility x × 10^6: 1.4201 mol. frac. (printed as x × 10^
[1]; 308.15 K
  Solubility S × 10^2: 1.4730 mol∙L^−1 (printed as S × 10^2)
  Solubility x × 10^3: 2.3729 mol. frac. (printed as x × 10^
  Solubility S × 10^4: 7.5805 mol∙L^−1 (printed as S × 10^4)
  Solubility x × 10^5: 1.3731 mol. frac. (printed as x × 10^
  Solubility S × 10^5: 8.9503 mol∙L^−1 (printed as S × 10^5)
  Solubility x × 10^6: 1.6349 mol. frac. (printed as x × 10^
[1]; 313.15 K
  Solubility S × 10^2: 1.6045 mol∙L^−1 (printed as S × 10^2)
  Solubility x × 10^3: 2.5979 mol. frac. (printed as x × 10^
  Solubility S × 10^4: 7.9724 mol∙L^−1 (printed as S × 10^4)
  Solubility x × 10^5: 1.4468 mol. frac. (printed as x × 10^
  Solubility S × 10^5: 10.2665 mol∙L^−1 (printed as S × 10^5)
  Solubility x × 10^6: 1.8788 mol. frac. (printed as x × 10^
[1]; 25 °C, organic solvent or mixture, thermodynamic from solid, 1-octanol, text values match 298.15 K, read-out: Solubility S in the alcohol (1-octanol)
  solubility at 2 days: 12.3 mM (≈ 8110 µg/mL)
[2]; MIC ratio
  advantage over fluconazole: 8 fold
[2]; Lodderomyces parapsilosis, ATCC22019, 35 °C, 24 h, read-out: MIC
  MIC: 0.25 µg/mL (≈ 0.379 µM)
C. glabrata 61L
  MIC relative to the reference value (fluconazole): four times less
C. glabrata 61L; Nakaseomyces glabratus, 35 °C, 24 h, read-out: MIC
  MIC: 2 µg/mL (≈ 3.03 µM)
C. utilis 84
  activity relative to fluconazole: comparable
C. utilis 84; Williopsis jadinii, 35 °C, 24 h, read-out: MIC
  MIC: 2 µg/mL (≈ 3.03 µM)
[3]; 1-Octanol
  TΔSsolo: -0.22 kcal/mol
  ΔGsolo: 3.68 ± 0.072 kcal/mol
  ΔHsolo: 3.47 ± 0.024 kcal/mol
  ΔSsolo: −3.1 ± 0.2 J·mol^−1·K^−1
[3]; Buffer pH 2.0
  TΔSsolo: -4.59 kcal/mol
  ΔGsolo: 6.69 ± 0.096 kcal/mol
  ΔHsolo: 2.1 ± 0.024 kcal/mol
  ΔSsolo: −64.4 ± 3.8 J·mol^−1·K^−1
[3]; Buffer pH 7.4
  TΔSsolo: -2.87 kcal/mol
  ΔGsolo: 8.05 ± 0.17 kcal/mol
  ΔHsolo: 5.19 ± 0.048 kcal/mol
  ΔSsolo: −40.3 ± 2.3 J·mol^−1·K^−1
[4]
  T∆trS^o: 5.81 ± 0.239 kcal/mol
  ∆trG^o: -3.54 ± 0.048 kcal/mol
  ∆trH^o: 2.27 ± 0.024 kcal/mol
  ∆trS^o: 81.5 ± 1.5 J·mol^−1·K^−1
